From publication PMC11822212, “High-throughput screening identifies Aurora kinase B as a critical therapeutic target for Merkel cell carcinoma” (Nature Communications, 2025)
Where two headings read alike, the source gives them in different places.

How the values were obtained:
Assay in all cases: qHTS cell viability (CellTiter-Glo, 72 h; primary and follow-up small molecule screen)
Assay type in all cases: cell-based, human
MCC13 cells (VN-MCC) = tested on: MCC13 cells (VN-MCC)
MCC26 cells (VN-MCC) = tested on: MCC26 cells (VN-MCC)
UISO cells (VN-MCC) = tested on: UISO cells (VN-MCC)
WAGA cells (VP-MCC) = tested on: WAGA cells (VP-MCC)
MKL-1 cells (VP-MCC) = tested on: MKL-1 cells (VP-MCC)
MKL-2 cells (VP-MCC) = tested on: MKL-2 cells (VP-MCC)
[1] = follow-up screen, MCC13, replicate 1
[2] = follow-up screen, MCC13, replicate 2
[3] = follow-up screen, MCC13, replicate 3
[4] = follow-up screen, MCC26, replicate 1
[5] = follow-up screen, MCC26, replicate 2
[6] = follow-up screen, MCC26, replicate 3
[7] = follow-up screen, UISO, replicate 1
[8] = follow-up screen, UISO, replicate 2
[9] = follow-up screen, UISO, replicate 3
[10] = follow-up screen, WAGA, replicate 1
[11] = follow-up screen, WAGA, replicate 2
[12] = follow-up screen, WAGA, replicate 3
[13] = follow-up screen, MKL-1, replicate 1
[14] = follow-up screen, MKL-1, replicate 2
[15] = follow-up screen, MKL-1, replicate 3
[16] = follow-up screen, MKL-2, replicate 1
[17] = follow-up screen, MKL-2, replicate 2
[18] = follow-up screen, MKL-2, replicate 3

Structure (SMILES) | Area under the dose-response curve (AUC) MCC13 Replicate 1 (MCC13 cells (VN-MCC); [1]) | Area under the dose-response curve (AUC) MCC13 Replicate 2 (MCC13 cells (VN-MCC); [2]) | Area under the dose-response curve (AUC) MCC13 Replicate 3 (MCC13 cells (VN-MCC); [3]) | Area under the dose-response curve (AUC) MCC26 Replicate 1 (MCC26 cells (VN-MCC); [4]) | Area under the dose-response curve (AUC) MCC26 Replicate 2 (MCC26 cells (VN-MCC); [5]) | Area under the dose-response curve (AUC) MCC26 Replicate 3 (MCC26 cells (VN-MCC); [6]) | Area under the dose-response curve (AUC) UISO Replicate 1 (UISO cells (VN-MCC); [7]) | Area under the dose-response curve (AUC) UISO Replicate 2 (UISO cells (VN-MCC); [8]) | Area under the dose-response curve (AUC) UISO Replicate 3 (UISO cells (VN-MCC); [9]) | Area under the dose-response curve (AUC) WAGA Replicate 1 (WAGA cells (VP-MCC); [10]) | Area under the dose-response curve (AUC) WAGA Replicate 2 (WAGA cells (VP-MCC); [11]) | Area under the dose-response curve (AUC) WAGA Replicate 3 (WAGA cells (VP-MCC); [12]) | Area under the dose-response curve (AUC) MKL-1 Replicate 1 (MKL-1 cells (VP-MCC); [13]) | Area under the dose-response curve (AUC) MKL-1 Replicate 2 (MKL-1 cells (VP-MCC); [14]) | Area under the dose-response curve (AUC) MKL-1 Replicate 3 (MKL-1 cells (VP-MCC); [15]) | Area under the dose-response curve (AUC) MKL-2 Replicate 1 (MKL-2 cells (VP-MCC); [16]) | Area under the dose-response curve (AUC) MKL-2 Replicate 2 (MKL-2 cells (VP-MCC); [17]) | Area under the dose-response curve (AUC) MKL-2 Replicate 3 (MKL-2 cells (VP-MCC); [18]) | Area under the dose-response curve (AUC) MCC13 Replicate 1 (MCC13 cells (VN-MCC)) | Area under the dose-response curve (AUC) MCC13 Replicate 2 (MCC13 cells (VN-MCC)) | also measured
Cc1cc(Nc2ncc3c(n2)N(C)C(=O)N(c2cc(NC(=O)c4cccc(C(F)(F)F)c4)ccc2C)C3)n(C)n1 [Pluripotin] | 368.1 | 352.7 | 330.6 | 306.5 | 289.3 | 278.9 | 341.8 | 376.4 | 360.3 | 419.3 | 439.3 | 440.2 | 453.5 | 477.1 | 466.2 | 435.4 | 458.3 | 471.4 | – | – | –
CC[C@@]1(O)C(=O)OCc2c1cc1n(c2=O)Cc2cc3ccccc3nc2-1 [Camptothecin] | 224.5 | 221.7 | 254.2 | 203.3 | 207.4 | 184.6 | 151.6 | 176.2 | 177.2 | 164.4 | 180.7 | 159.3 | 168.7 | 185.9 | 170.7 | 160.6 | 161.3 | 224.5 | – | – | –
CN(C)c1ccc(C(=C2C=CC(=[N+](C)C)C=C2)c2ccc(N(C)C)cc2)cc1.[Cl-] [Methylrosaniline chloride] | – | – | – | – | – | – | – | – | – | – | – | – | – | – | – | – | – | – | 337.3 | 353.3 | Area under the dose-response curve (AUC) MCC13 Replicate 3 (MCC13 cells (VN-MCC)): 322.2; Area under the dose-response curve (AUC) MCC26 Replicate 1 (MCC26 cells (VN-MCC)): 379.4; Area under the dose-response curve (AUC) MCC26 Replicate 2 (MCC26 cells (VN-MCC)): 341.7; Area under the dose-response curve (AUC) MCC26 Replicate 3 (MCC26 cells (VN-MCC)): 374.7; Area under the dose-response curve (AUC) UISO Replicate 1 (UISO cells (VN-MCC)): 320.8; Area under the dose-response curve (AUC) UISO Replicate 2 (UISO cells (VN-MCC)): 340.7; Area under the dose-response curve (AUC) UISO Replicate 3 (UISO cells (VN-MCC)): 296.1; Area under the dose-response curve (AUC) WAGA Replicate 1 (WAGA cells (VP-MCC)): 370.0; Area under the dose-response curve (AUC) WAGA Replicate 2 (WAGA cells (VP-MCC)): 348.5; Area under the dose-response curve (AUC) WAGA Replicate 3 (WAGA cells (VP-MCC)): 356.4; Area under the dose-response curve (AUC) MKL-1 Replicate 1 (MKL-1 cells (VP-MCC)): 316.1; Area under the dose-response curve (AUC) MKL-1 Replicate 2 (MKL-1 cells (VP-MCC)): 287.7; Area under the dose-response curve (AUC) MKL-1 Replicate 3 (MKL-1 cells (VP-MCC)): 301.6; Area under the dose-response curve (AUC) MKL-2 Replicate 1 (MKL-2 cells (VP-MCC)): 279.9; Area under the dose-response curve (AUC) MKL-2 Replicate 2 (MKL-2 cells (VP-MCC)): 290.8; Area under the dose-response curve (AUC) MKL-2 Replicate 3 (MKL-2 cells (VP-MCC)): 309.2
CC(C)=CCC[C@]1(C)C=Cc2c(O)c3c(c(CC=C(C)C)c2O1)O[C@]12C(=C[C@@H]4C[C@H]1C(C)(C)O[C@@]2(C/C=C(/C)C(=O)O)C4=O)C3=O [GAMBOGIC ACID] | 387.5 | 370.7 | 367.8 | 329.0 | 325.1 | 343.3 | 286.6 | 299.4 | 341.5 | 304.1 | 265.2 | 369.1 | 308.8 | 334.5 | 328.9 | 279.3 | 285.4 | 317.0 | – | – | –
Nc1ccc(C(=O)Nc2ccccc2N)cc1 [Dianiline] | 470.9 | 476.2 | 459.3 | 384.0 | 438.4 | 461.6 | 377.0 | 432.3 | 415.8 | 404.2 | 318.5 | 364.2 | 338.4 | 393.7 | 398.6 | 329.9 | 373.4 | 408.4 | – | – | –
CCCNC(=O)[C@H]1O[C@@H]1C(=O)N[C@H](C(=O)N1CCC[C@H]1C(=O)OC)C(C)CC (stereo partly drawn) [CA-074 Me] | – | – | – | – | – | – | – | – | – | – | – | – | – | – | – | – | – | – | 449.3 | 470.8 | Area under the dose-response curve (AUC) MCC13 Replicate 3 (MCC13 cells (VN-MCC)): 430.6; Area under the dose-response curve (AUC) MCC26 Replicate 1 (MCC26 cells (VN-MCC)): 401.2; Area under the dose-response curve (AUC) MCC26 Replicate 2 (MCC26 cells (VN-MCC)): 420.5; Area under the dose-response curve (AUC) MCC26 Replicate 3 (MCC26 cells (VN-MCC)): 371.8; Area under the dose-response curve (AUC) UISO Replicate 1 (UISO cells (VN-MCC)): 368.5; Area under the dose-response curve (AUC) UISO Replicate 2 (UISO cells (VN-MCC)): 355.5; Area under the dose-response curve (AUC) UISO Replicate 3 (UISO cells (VN-MCC)): 334.3; Area under the dose-response curve (AUC) WAGA Replicate 1 (WAGA cells (VP-MCC)): 383.1; Area under the dose-response curve (AUC) WAGA Replicate 2 (WAGA cells (VP-MCC)): 375.3; Area under the dose-response curve (AUC) WAGA Replicate 3 (WAGA cells (VP-MCC)): 378.5; Area under the dose-response curve (AUC) MKL-1 Replicate 1 (MKL-1 cells (VP-MCC)): 343.4; Area under the dose-response curve (AUC) MKL-1 Replicate 2 (MKL-1 cells (VP-MCC)): 329.7; Area under the dose-response curve (AUC) MKL-1 Replicate 3 (MKL-1 cells (VP-MCC)): 317.3; Area under the dose-response curve (AUC) MKL-2 Replicate 1 (MKL-2 cells (VP-MCC)): 305.9; Area under the dose-response curve (AUC) MKL-2 Replicate 2 (MKL-2 cells (VP-MCC)): 306.4; Area under the dose-response curve (AUC) MKL-2 Replicate 3 (MKL-2 cells (VP-MCC)): 348.6
CC(/C=C/C(=O)NO)=C\[C@@H](C)C(=O)c1ccc(N(C)C)cc1 [TSA] | – | – | – | – | – | – | – | – | – | – | – | – | – | – | – | – | – | – | 419.6 | 438.9 | Area under the dose-response curve (AUC) MCC13 Replicate 3 (MCC13 cells (VN-MCC)): 399.7; Area under the dose-response curve (AUC) MCC26 Replicate 1 (MCC26 cells (VN-MCC)): 375.6; Area under the dose-response curve (AUC) MCC26 Replicate 2 (MCC26 cells (VN-MCC)): 383.1; Area under the dose-response curve (AUC) MCC26 Replicate 3 (MCC26 cells (VN-MCC)): 360.2; Area under the dose-response curve (AUC) UISO Replicate 1 (UISO cells (VN-MCC)): 357.7; Area under the dose-response curve (AUC) UISO Replicate 2 (UISO cells (VN-MCC)): 378.3; Area under the dose-response curve (AUC) UISO Replicate 3 (UISO cells (VN-MCC)): 338.8; Area under the dose-response curve (AUC) WAGA Replicate 1 (WAGA cells (VP-MCC)): 341.0; Area under the dose-response curve (AUC) WAGA Replicate 2 (WAGA cells (VP-MCC)): 323.1; Area under the dose-response curve (AUC) WAGA Replicate 3 (WAGA cells (VP-MCC)): 341.7; Area under the dose-response curve (AUC) MKL-1 Replicate 1 (MKL-1 cells (VP-MCC)): 401.2; Area under the dose-response curve (AUC) MKL-1 Replicate 2 (MKL-1 cells (VP-MCC)): 324.1; Area under the dose-response curve (AUC) MKL-1 Replicate 3 (MKL-1 cells (VP-MCC)): 329.2; Area under the dose-response curve (AUC) MKL-2 Replicate 1 (MKL-2 cells (VP-MCC)): 276.9; Area under the dose-response curve (AUC) MKL-2 Replicate 2 (MKL-2 cells (VP-MCC)): 277.0; Area under the dose-response curve (AUC) MKL-2 Replicate 3 (MKL-2 cells (VP-MCC)): 326.7
